SMILES strings stand for the structures.

As for `O=C(Nc1ccnn1C1CCN(C/C=C/c2ccc(Cl)cc2)CC1)c1ccnc(Cl)c1`, the melting point was in the range of 69 to 70 °C.
For `O=C(Nc1cccnc1C1CCN(C/C=C/c2ccc(Cl)cc2)CC1)c1ccnc(Cl)c1` the value was 78 to 80 °C; for `O=C(Nc1cccnc1C1=CCN(C/C=C/c2ccc(Cl)cc2)CC1)c1ccnc(Cl)c1`, 75 to 77 °C.

One may read the melting point as the temperature, or range, at which the solid turns liquid.

The record behind these values is patent publication US8129534B2, “Chemical compounds” (priority 2004, dated 2012).
